Assay results taken from ChEMBL document CHEMBL2021794, “Synthesis, σ₁, σ₂-receptors binding affinity and antiproliferative action of new C1-substituted adamantanes” (Bioorg Med Chem, 2012).
Active and inactive are the calls of the source. The calls are words filed in the database; no cut-off is given here.

Experiments:
IGROV-1 [1] = test: Cell cycle arrest in human IGROV1 cells assessed as accumulation at G1 phase at 0.5 uM after 24 hrs by propidium iodide staining based flow cytometry (reference value: 27%); format: functional
IGROV-1 [2] = test: Induction of apoptosis in human IGROV1 cells assessed as healthy cells at 15 uM after 24 hrs by Annexin V/7-AAD staining based flow cytometry (reference value: 86%); format: functional
U-251 [3] = test: Cytotoxicity against human U251 cells after 48 hrs by trypan blue assay; format: functional, cell-based
BXPC-3 [4] = test: Induction of apoptosis in human BxPC3 cells assessed as late apoptotic cells at 0.5 uM after 24 hrs by Annexin V/7-AAD staining based flow cytometry (reference value: 9%); format: functional
IGROV-1 [5] = test: Induction of apoptosis in human IGROV1 cells assessed as healthy cells at 50 uM after 24 hrs by Annexin V/7-AAD staining based flow cytometry (reference value: 86%); format: functional
BXPC-3 [6] = test: Growth inhibition of human BxPC3 cells after 48 hrs by SRB assay; format: functional; conditions: BXPC-3, 48 h
MIA PaCa-2 [7] = test: Antitumor activity against human MIAPaCa2 cells xenografted in SCID mouse assessed as tumor weight at 70 mg/kg, ip for 3 consecutive days (reference value: 1225 +/- 308 mg); format: functional; conditions: route intraperitoneal
DMS-114 = test: Growth inhibition of human DMS114 cells after 48 hrs by SRB assay; format: functional; conditions: DMS-114, 48 h
IGROV-1 [8] = test: Induction of apoptosis in human IGROV1 cells assessed as cleaved caspase-3 containing cells at 50 uM after 24 hrs by FACS analysis (reference value: 4%); format: functional
BXPC-3 [9] = test: Cell cycle arrest in human BxPC3 cells assessed as accumulation at >G2 phase at 15 uM after 24 hrs by propidium iodide staining based flow cytometry (reference value: 6%); format: functional
PC-3 [10] = test: Cytotoxicity against human PC3 cells after 48 hrs by trypan blue assay; format: functional, cell-based
BXPC-3 [11] = test: Cell cycle arrest in human BxPC3 cells assessed as accumulation at S phase at 5 uM after 24 hrs by propidium iodide staining based flow cytometry (reference value: 33%); format: functional
PC-3 [12] = test: Cell cycle arrest in human PC3 cells assessed as accumulation at S phase at 5 uM after 24 hrs by propidium iodide staining based flow cytometry (reference value: 42%); format: functional
MCF7 = test: Growth inhibition of human MCF7 cells after 48 hrs by SRB assay; format: functional; conditions: MCF7, 48 h
IGROV-1 [13] = test: Cell cycle arrest in human IGROV1 cells assessed as accumulation at S phase at 5 uM after 24 hrs by propidium iodide staining based flow cytometry (reference value: 29%); format: functional
PC-3 [14] = test: Cell cycle arrest in human PC3 cells assessed as accumulation at < G1 phase at 5 uM after 24 hrs by propidium iodide staining based flow cytometry (reference value: 4%); format: functional
BXPC-3 [15] = test: Cell cycle arrest in human BxPC3 cells assessed as accumulation at >G2 phase at 50 uM after 24 hrs by propidium iodide staining based flow cytometry (reference value: 6%); format: functional
PC-3 [16] = test: Induction of apoptosis in human PC3 cells assessed as early apoptotic cells at 0.5 uM after 24 hrs by Annexin V/7-AAD staining based flow cytometry (reference value: 5%); format: functional
PC-3 [17] = test: Cell cycle arrest in human PC3 cells assessed as accumulation at >G2 phase at 5 uM after 24 hrs by propidium iodide staining based flow cytometry (reference value: 6%); format: functional
PC-3 [18] = test: Induction of apoptosis in human PC3 cells assessed as healthy cells at 0.5 uM after 24 hrs by Annexin V/7-AAD staining based flow cytometry (reference value: 92%); format: functional
IGROV-1 [19] = test: Induction of apoptosis in human IGROV1 cells assessed as cleaved caspase-3 containing cells at 0.5 uM after 24 hrs by FACS analysis (reference value: 4%); format: functional
IGROV-1 [20] = test: Cell cycle arrest in human IGROV1 cells assessed as accumulation at < G1 phase at 0.5 uM after 24 hrs by propidium iodide staining based flow cytometry (reference value: 4%); format: functional
MIA PaCa-2 [21] = test: Antitumor activity against human MIAPaCa2 cells xenografted in SCID mouse assessed as reduction in tumor volume at 45 mg/kg, ip for 3 consecutive days; format: functional; conditions: MIA PaCa-2, ip, route intraperitoneal
PC-3 [22] = test: Cell cycle arrest in human PC3 cells assessed as accumulation at G2 phase at 0.5 uM after 24 hrs by propidium iodide staining based flow cytometry (reference value: 13%); format: functional
U-251 [23] = test: Growth inhibition of human U251 cells after 48 hrs by SRB assay; format: functional; conditions: U-251, 48 h
BXPC-3 [24] = test: Cell cycle arrest in human BxPC3 cells assessed as accumulation at G2 phase at 15 uM after 24 hrs by propidium iodide staining based flow cytometry (reference value: 12%); format: functional
BXPC-3 [25] = test: Cell cycle arrest in human BxPC3 cells assessed as accumulation at G2 phase at 0.5 uM after 24 hrs by propidium iodide staining based flow cytometry (reference value: 12%); format: functional
PC-3 [26] = test: Cell cycle arrest in human PC3 cells assessed as accumulation at G2 phase at 50 uM after 24 hrs by propidium iodide staining based flow cytometry (reference value: 13%); format: functional
PC-3 [27] = test: Cell cycle arrest in human PC3 cells assessed as accumulation at G2 phase at 15 uM after 24 hrs by propidium iodide staining based flow cytometry (reference value: 13%); format: functional
SF-268 [28] = test: Growth inhibition of human SF268 cells after 48 hrs by SRB assay; format: functional; conditions: SF-268, 48 h
BXPC-3 [29] = test: Induction of apoptosis in human BxPC3 cells assessed as cleaved caspase-3 containing cells at 0.5 uM after 24 hrs by FACS analysis (reference value: 10%); format: functional
IGROV-1 [30] = test: Cell cycle arrest in human IGROV1 cells assessed as accumulation at S phase at 0.5 uM after 24 hrs by propidium iodide staining based flow cytometry (reference value: 29%); format: functional
OVCAR-5 [31] = test: Growth inhibition of human OVCAR5 cells after 48 hrs by SRB assay; format: functional; conditions: OVCAR-5, 48 h
IGROV-1 [32] = test: Cell cycle arrest in human IGROV1 cells assessed as accumulation at >G2 phase at 15 uM after 24 hrs by propidium iodide staining based flow cytometry (reference value: 21%); format: functional
SF-268 [33] = test: Cytotoxicity against human SF268 cells after 48 hrs by trypan blue assay; format: functional, cell-based
IGROV-1 [34] = test: Induction of apoptosis in human IGROV1 cells assessed as late apoptotic cells at 0.5 uM after 24 hrs by Annexin V/7-AAD staining based flow cytometry (reference value: 4%); format: functional
PC-3 [35] = test: Induction of apoptosis in human PC3 cells assessed as cleaved caspase-3 containing cells at 15 uM after 24 hrs by FACS analysis (reference value: 3%); format: functional
OVCAR-5 [36] = test: Cytotoxicity against human OVCAR5 cells after 48 hrs by trypan blue assay; format: functional, cell-based
[37] = read-out: LC50 (the source's name)

SMILES: CN1CCN(c2ccc(C(c3ccccc3)C34CC5CC(CC(C5)C3)C4)cc2)CC1 (stereo not given)
- Activity (IGROV-1 [1]): 26%
- Activity (IGROV-1 [2]): 62%
- Activity (U-251 [3]): Active
- Activity (BXPC-3 [4]): 6%
- Activity (IGROV-1 [5]): 31%
- GI50 (BXPC-3 [6]): 3.84 µM
- LC50 (BXPC-3 [6]): 16.6 µM
- TGI (BXPC-3 [6]): 6.96 µM
- Activity (MIA PaCa-2 [7]): 642 mg
- GI50 (DMS-114): 5.43 µM
- TGI (DMS-114): 9.17 µM
- CC50 (DMS-114; [37]): 100 µM
- Activity (IGROV-1 [8]): 68%
- Activity (BXPC-3 [9]): 5%
- Activity (PC-3 [10]): Active
- Activity (BXPC-3 [11]): 30%
- Activity (PC-3 [12]): 42%
- GI50 (MCF7): 11.6 µM
- TGI (MCF7): 16.9 µM
- CC50 (MCF7; [37]): 3.17 µM
- Activity (IGROV-1 [13]): 29%
- Activity (PC-3 [14]): 9%
- Activity (BXPC-3 [15]): 5%
- Activity (PC-3 [16]): 3%
- Activity (PC-3 [17]): 5%
- Activity (PC-3 [18]): 95%
- Activity (IGROV-1 [19]): 5%
- Activity (IGROV-1 [20]): 3%
- inhibition in vivo at 45 mg/kg (MIA PaCa-2 [21]): 47.5%
- Activity (PC-3 [22]): 14%
- GI50 (U-251 [23]): 4 µM
- TGI (U-251 [23]): 6.57 µM
- CC50 (U-251 [23]; [37]): 9.14 µM
- Activity (BXPC-3 [24]): 16%
- Activity (BXPC-3 [25]): 12%
- Activity (PC-3 [26]): 10%
- Activity (PC-3 [27]): 9%
- GI50 (SF-268 [28]): 18.9 µM
- TGI (SF-268 [28]): 61.6 µM
- CC50 (SF-268 [28]; [37]): 100 µM
- Activity (BXPC-3 [29]): 3%
- Activity (IGROV-1 [30]): 28%
- GI50 (OVCAR-5 [31]): 8 µM
- TGI (OVCAR-5 [31]): 41.9 µM
- CC50 (OVCAR-5 [31]; [37]): 94.5 µM
- Activity (IGROV-1 [32]): 20%
- Activity (SF-268 [33]): Active
- Activity (IGROV-1 [34]): 3%
- Activity (PC-3 [35]): 3%
- Activity (OVCAR-5 [36]): Active
